Tests used:
[1] = tested on: AMBEL (Ambrosia artemisifolia); experiment: Preemergence herbicidal evaluation; format: in vivo, L.; conditions: preemergence, rated 4-5 weeks after treatment
Procedure, shortened: (§1)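 Rating 0–9, visual, vs control; 4–5 wk after spraying seeded cups with compound in aq. acetone; conventional greenhouse care.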

ZEAMX (Corn, Field) [2] = experiment: Postemergence herbicidal evaluation; format: in vivo, Zea mays, L.; conditions: postemergence
Procedure, shortened: (§2)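 Visual 0–9 injury scores versus control plants, covering stand, vigour, malformation, size, chlorosis and general appearance, taken four to five weeks post-spray and averaged over replicate tests. Plants were sprayed at roughly two weeks old and held on greenhouse benches.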

CYPIR (Cyperus iria) = experiment: Flooded paddy, preemergence weed control; format: in vivo; conditions: rated 3-4 weeks after treatment, 0-9 rating scale
Procedure, shortened: (§3)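 Seeds or propagules were planted in the top 0.5 cm of silt loam soil and kept flooded 1.5–3 cm above the surface throughout, then held in the greenhouse. Injury was rated visually on a 0–9 scale against untreated controls, covering stand, vigor, malformation, size and chlorosis.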

[3] = tested on: SAGPY (Sagittaria pygmaea); experiment: Flooded paddy, preemergence weed control; format: in vivo, L.; conditions: rated 3-4 weeks after treatment, 0-9 rating scale
Procedure, shortened: as §3

ORYSAT (Rice, Tebonnet) [4] = experiment: Flooded paddy, post-transplant rice tolerance; format: in vivo, Oryza sativa, (L.) Tebonnet; conditions: flooded paddy, post-transplant rice, rated 3-4 weeks after treatment, 0-9 rating scale
Procedure, shortened: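 Two ten-day-old seedlings were transplanted into silt loam, flooded and held at 1.5 to 3 cm water above the soil before herbicide treatment. Pots stayed in the greenhouse at that water level. Injury was scored visually on a 0-9 scale versus untreated control.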

[5] = tested on: IPOHE (Ipomoea hederacea); experiment: Preemergence herbicidal evaluation; format: in vivo, (L.) Jacq.; conditions: preemergence, rated 4-5 weeks after treatment
ORYSAT (Rice, Tebonnet) [6] = experiment: Postemergence herbicidal evaluation; format: in vivo, Oryza sativa, (L.) Tebonnet; conditions: postemergence
Procedure, shortened: as §2

[7] = tested on: ABUTH (Abutilon theophrasti); experiment: Preemergence herbicidal evaluation; format: in vivo, Medic.; conditions: preemergence, rated 4-5 weeks after treatment
[8] = tested on: ECHORC (Echinochloa oryzoides); experiment: Flooded paddy, preemergence weed control; format: in vivo, Echinochloa oryzoides (Ard.) Fritsch.; conditions: rated 3-4 weeks after treatment, 0-9 rating scale
Procedure, shortened: as §3

[9] = tested on: MOOVA (Monochoria vaginalis); experiment: Flooded paddy, preemergence weed control; format: in vivo, Presl.; conditions: rated 3-4 weeks after treatment, 0-9 rating scale
Procedure, shortened: as §3

GLXMA (Soybean) = experiment: Preemergence herbicidal evaluation; format: in vivo, Glycine max, (L.) Merr.; conditions: preemergence, rated 4-5 weeks after treatment
[10] = tested on: IPOHE (Ipomoea hederacea); experiment: Postemergence herbicidal evaluation; format: in vivo, (L.) Jacq.; conditions: postemergence
Procedure, shortened: as §2

[11] = tested on: ECHCG (Echinochloa crus-galli); experiment: Preemergence herbicidal evaluation; format: in vivo, (L.) Beau; conditions: preemergence, rated 4-5 weeks after treatment
Procedure, shortened: as §1

ZEAMX (Corn, Field) [12] = experiment: Preemergence herbicidal evaluation; format: in vivo, Zea mays, L.; conditions: preemergence, rated 4-5 weeks after treatment
[13] = tested on: AMBEL (Ambrosia artemisifolia); experiment: Postemergence herbicidal evaluation; format: in vivo, L.; conditions: postemergence
Procedure, shortened: as §2

[14] = tested on: CASOB (Cassia obtusifolia); experiment: Postemergence herbicidal evaluation; format: in vivo, L.; conditions: postemergence
Procedure, shortened: as §2

[15] = tested on: CHEAL (Chenopodium album); experiment: Postemergence herbicidal evaluation; format: in vivo, L.; conditions: postemergence
Procedure, shortened: as §2

[16] = tested on: TRZAWR (Wheat, Winter, cv Riband); experiment: Postemergence herbicidal evaluation; format: in vivo, Triticum aestivum; conditions: postemergence
Procedure, shortened: as §2

[17] = tested on: GLXMAW (Soybean, Williams); experiment: Postemergence herbicidal evaluation; format: in vivo, Glycine max, (L.) Merr. cv Williams; conditions: postemergence
Procedure, shortened: as §2

GALAP (Galium aparine) [18] = experiment: Postemergence herbicidal evaluation; format: in vivo; conditions: postemergence
Procedure, shortened: as §2

[19] = tested on: ECHCG (Echinochloa crus-galli); experiment: Postemergence herbicidal evaluation; format: in vivo, (L.) Beau; conditions: postemergence
Procedure, shortened: as §2

[20] = tested on: ABUTH (Abutilon theophrasti); experiment: Postemergence herbicidal evaluation; format: in vivo, Medic.; conditions: postemergence
Procedure, shortened: as §2

GALAP (Galium aparine) [21] = experiment: Preemergence herbicidal evaluation; format: in vivo; conditions: preemergence, rated 4-5 weeks after treatment
Procedure, shortened: as §1

COC1(c2nsc3ccc(-n4c(=O)cc(C(F)(F)F)n(C)c4=O)cc23)N=C(N(C)C)NC1=O (centres unmarked) [Compound 93, 3-[3-[2-(dimethylamino)-4-methoxy-5-oxo-2-imidazolin-4-yl]-1,2-benzisothiazol-5-yl]-1-methyl-6-(trifluoromethyl)uracil]
6.0: ECHORC herbicidal rating ([8]; rate 0.1250 kg/ha) | Preemergence herbicidal rating GLXMA (GLXMA (Soybean); rate 0.1250 kg/ha)
4.0: Preemergence herbicidal rating AMBEL ([1]; rate 0.0620 kg/ha) | ORYSAT herbicidal rating (ORYSAT (Rice, Tebonnet) [6]; rate 0.0320 kg/ha) | Preemergence herbicidal rating GLXMA (GLXMA (Soybean); rate 0.0620 kg/ha) | Preemergence herbicidal rating ECHCG ([11]; rate 0.2500 kg/ha)
3.0: Preemergence herbicidal rating IPOHE ([5]; rate 0.0620 kg/ha)
7.5: TRZAWR herbicidal rating ([16]; rate 0.0620 kg/ha)
8.0: ORYSAT herbicidal rating (transplanted rice tolerance) (ORYSAT (Rice, Tebonnet) [4]; rate 0.1250 kg/ha) | ORYSAT herbicidal rating (ORYSAT (Rice, Tebonnet) [6]; rate 0.0620 kg/ha)
7.0: Preemergence herbicidal rating AMBEL ([1]; rate 0.1250 kg/ha) | Preemergence herbicidal rating GLXMA (GLXMA (Soybean); rate 0.2500 kg/ha) | CASOB herbicidal rating ([14]; rate 0.0320 kg/ha)
9.0: Preemergence herbicidal rating AMBEL ([1]; rate 0.2500 kg/ha) | CYPIR herbicidal rating (CYPIR (Cyperus iria); rate 0.1250 kg/ha) | SAGPY herbicidal rating ([3]; rate 0.1250 kg/ha) | Preemergence herbicidal rating IPOHE ([5]; rate 0.1250 kg/ha) | Preemergence herbicidal rating IPOHE ([5]; rate 0.2500 kg/ha) | Preemergence herbicidal rating ABUTH ([7]; rate 0.0620 kg/ha) | Preemergence herbicidal rating ABUTH ([7]; rate 0.1250 kg/ha) | Preemergence herbicidal rating ABUTH ([7]; rate 0.2500 kg/ha) | MOOVA herbicidal rating ([9]; rate 0.1250 kg/ha) | IPOHE herbicidal rating ([10]; rate 0.0320 kg/ha) | IPOHE herbicidal rating ([10]; rate 0.0620 kg/ha) | AMBEL herbicidal rating ([13]; rate 0.0320 kg/ha) | AMBEL herbicidal rating ([13]; rate 0.0620 kg/ha) | CASOB herbicidal rating ([14]; rate 0.0620 kg/ha) | CHEAL herbicidal rating ([15]; rate 0.0320 kg/ha) | CHEAL herbicidal rating ([15]; rate 0.0620 kg/ha) | GLXMAW herbicidal rating ([17]; rate 0.0320 kg/ha) | GLXMAW herbicidal rating ([17]; rate 0.0620 kg/ha) | GALAP herbicidal rating (GALAP (Galium aparine) [18]; rate 0.0320 kg/ha) | GALAP herbicidal rating (GALAP (Galium aparine) [18]; rate 0.0620 kg/ha) | ECHCG herbicidal rating ([19]; rate 0.0320 kg/ha) | ECHCG herbicidal rating ([19]; rate 0.0620 kg/ha) | ABUTH herbicidal rating ([20]; rate 0.0320 kg/ha) | ABUTH herbicidal rating ([20]; rate 0.0620 kg/ha)
0.0: CYPIR herbicidal rating (CYPIR (Cyperus iria); rate 0.0320 kg/ha) | SAGPY herbicidal rating ([3]; rate 0.0320 kg/ha) | ECHORC herbicidal rating ([8]; rate 0.0320 kg/ha) | MOOVA herbicidal rating ([9]; rate 0.0320 kg/ha) | Preemergence herbicidal rating ECHCG ([11]; rate 0.0620 kg/ha) | Preemergence herbicidal rating ECHCG ([11]; rate 0.1250 kg/ha) | Preemergence herbicidal rating ZEAMX (ZEAMX (Corn, Field) [12]; rate 0.0620 kg/ha) | Preemergence herbicidal rating ZEAMX (ZEAMX (Corn, Field) [12]; rate 0.1250 kg/ha) | Preemergence herbicidal rating ZEAMX (ZEAMX (Corn, Field) [12]; rate 0.2500 kg/ha)
5.5: ZEAMX herbicidal rating (ZEAMX (Corn, Field) [2]; rate 0.0320 kg/ha) | ZEAMX herbicidal rating (ZEAMX (Corn, Field) [2]; rate 0.0620 kg/ha) | TRZAWR herbicidal rating ([16]; rate 0.0320 kg/ha)

Cn1c(C(F)(F)F)cc(=O)n(-c2ccc3snc(-c4nc5ccccc5[nH]c4=O)c3c2)c1=O [Compound 90, 3-[3-(3,4-dihydro-3-oxo-2-quinoxalinyl)-1,2-benzisothiazol-5-yl]-1-methyl-6-(trifluoromethyl)uracil]
6.5: IPOHE herbicidal rating ([10]; rate 0.0320 kg/ha) | AMBEL herbicidal rating ([13]; rate 0.0320 kg/ha) | AMBEL herbicidal rating ([13]; rate 0.0620 kg/ha) | GLXMAW herbicidal rating ([17]; rate 0.1250 kg/ha)
1.0: Preemergence herbicidal rating ECHCG ([11]; rate 0.2500 kg/ha)
3.0: Preemergence herbicidal rating GALAP (GALAP (Galium aparine) [21]; rate 0.2500 kg/ha) | ECHCG herbicidal rating ([19]; rate 0.0620 kg/ha)
5.0: CASOB herbicidal rating ([14]; rate 0.0320 kg/ha) | CASOB herbicidal rating ([14]; rate 0.0620 kg/ha) | CASOB herbicidal rating ([14]; rate 0.1250 kg/ha) | GALAP herbicidal rating (GALAP (Galium aparine) [18]; rate 0.1250 kg/ha)
3.3: ZEAMX herbicidal rating (ZEAMX (Corn, Field) [2]; rate 0.0320 kg/ha) | ZEAMX herbicidal rating (ZEAMX (Corn, Field) [2]; rate 0.0620 kg/ha)
7.5: ABUTH herbicidal rating ([20]; rate 0.0320 kg/ha) | ABUTH herbicidal rating ([20]; rate 0.0620 kg/ha)
3.5: Preemergence herbicidal rating AMBEL ([1]; rate 0.2500 kg/ha) | Preemergence herbicidal rating ABUTH ([7]; rate 0.1250 kg/ha)
0.0: Preemergence herbicidal rating AMBEL ([1]; rate 0.0620 kg/ha) | CYPIR herbicidal rating (CYPIR (Cyperus iria); rate 0.0320 kg/ha) | CYPIR herbicidal rating (CYPIR (Cyperus iria); rate 0.1250 kg/ha) | SAGPY herbicidal rating ([3]; rate 0.0320 kg/ha) | SAGPY herbicidal rating ([3]; rate 0.1250 kg/ha) | ORYSAT herbicidal rating (transplanted rice tolerance) (ORYSAT (Rice, Tebonnet) [4]; rate 0.0320 kg/ha) | ORYSAT herbicidal rating (transplanted rice tolerance) (ORYSAT (Rice, Tebonnet) [4]; rate 0.1250 kg/ha) | Preemergence herbicidal rating IPOHE ([5]; rate 0.0620 kg/ha) | Preemergence herbicidal rating IPOHE ([5]; rate 0.1250 kg/ha) | Preemergence herbicidal rating GALAP (GALAP (Galium aparine) [21]; rate 0.0620 kg/ha) | Preemergence herbicidal rating GALAP (GALAP (Galium aparine) [21]; rate 0.1250 kg/ha) | Preemergence herbicidal rating ABUTH ([7]; rate 0.0620 kg/ha) | ECHORC herbicidal rating ([8]; rate 0.0320 kg/ha) | ECHORC herbicidal rating ([8]; rate 0.1250 kg/ha) | MOOVA herbicidal rating ([9]; rate 0.0320 kg/ha) | MOOVA herbicidal rating ([9]; rate 0.1250 kg/ha) | Preemergence herbicidal rating GLXMA (GLXMA (Soybean); rate 0.0620 kg/ha) | Preemergence herbicidal rating GLXMA (GLXMA (Soybean); rate 0.1250 kg/ha) | Preemergence herbicidal rating GLXMA (GLXMA (Soybean); rate 0.2500 kg/ha) | Preemergence herbicidal rating ECHCG ([11]; rate 0.0620 kg/ha) | Preemergence herbicidal rating ECHCG ([11]; rate 0.1250 kg/ha) | Preemergence herbicidal rating ZEAMX (ZEAMX (Corn, Field) [12]; rate 0.0620 kg/ha) | Preemergence herbicidal rating ZEAMX (ZEAMX (Corn, Field) [12]; rate 0.1250 kg/ha) | Preemergence herbicidal rating ZEAMX (ZEAMX (Corn, Field) [12]; rate 0.2500 kg/ha)
2.8: TRZAWR herbicidal rating ([16]; rate 0.0320 kg/ha) | TRZAWR herbicidal rating ([16]; rate 0.0620 kg/ha)
9.0: Preemergence herbicidal rating ABUTH ([7]; rate 0.2500 kg/ha) | IPOHE herbicidal rating ([10]; rate 0.1250 kg/ha) | AMBEL herbicidal rating ([13]; rate 0.1250 kg/ha) | CHEAL herbicidal rating ([15]; rate 0.0320 kg/ha) | CHEAL herbicidal rating ([15]; rate 0.0620 kg/ha) | CHEAL herbicidal rating ([15]; rate 0.1250 kg/ha) | ABUTH herbicidal rating ([20]; rate 0.1250 kg/ha)
2.0: ORYSAT herbicidal rating (ORYSAT (Rice, Tebonnet) [6]; rate 0.0320 kg/ha) | ORYSAT herbicidal rating (ORYSAT (Rice, Tebonnet) [6]; rate 0.1250 kg/ha) | TRZAWR herbicidal rating ([16]; rate 0.1250 kg/ha) | ECHCG herbicidal rating ([19]; rate 0.0320 kg/ha)
1.5: Preemergence herbicidal rating AMBEL ([1]; rate 0.1250 kg/ha) | Preemergence herbicidal rating IPOHE ([5]; rate 0.2500 kg/ha)
6.3: GLXMAW herbicidal rating ([17]; rate 0.0620 kg/ha)
4.0: GALAP herbicidal rating (GALAP (Galium aparine) [18]; rate 0.0320 kg/ha) | GALAP herbicidal rating (GALAP (Galium aparine) [18]; rate 0.0620 kg/ha) | ECHCG herbicidal rating ([19]; rate 0.1250 kg/ha)
8.0: IPOHE herbicidal rating ([10]; rate 0.0620 kg/ha)
2.5: ZEAMX herbicidal rating (ZEAMX (Corn, Field) [2]; rate 0.1250 kg/ha) | ORYSAT herbicidal rating (ORYSAT (Rice, Tebonnet) [6]; rate 0.0620 kg/ha)
6.0: GLXMAW herbicidal rating ([17]; rate 0.0320 kg/ha)

— patent US6706663B2, “Herbicidal 3-heterocyclic substituted benzisothiazole and benzisoxazole compounds” (Wyeth, priority 2000, dated 2004)
